Laboratory results reported in patent publication US20240002339A1, “THERAPEUTIC COMPOUNDS AND METHODS” (Regents of the University of Minnesota, priority 2022, published 2024).

What was measured:
CDK2 [1] = biological target: T1, CDK2 (Homo sapiens (Human), UniProt P24941); experiment: Isothermal titration calorimetry (ITC); type: binding
GST-tagged CDK2 = GST-tagged CDK2 (Homo sapiens (Human), UniProt P24941); experiment: Surface plasmon resonance (SPR); type: binding; conditions: read-out: SPR Kd (SSA)
CDK2 [2] = biological target: T1, CDK2; experiment: p-Cl-ANS displacement assay (fluorescent binding assay)
CDK2/cyclin A = CDK2/cyclin A (Homo sapiens (Human), UniProt P24941); experiment: ADP-Glo enzymatic activity assay; type: biochemical

| Structure (SMILES) | Kd (CDK2 [1]) | IC50 (CDK2 [2]) | other results |
| --- | --- | --- | --- |
| COc1cc(NCCc2c[nH]c3ccccc23)c(C(=O)O)cc1OC [Example 71, 2-((2-(1H-Indol-3-yl)ethyl)amino)-4,5-dimethoxybenzoic acid] | 10 µM |  |  |
| O=C(O)c1cc(C(F)(F)F)ccc1NCCc1c[nH]c2cc(Cl)ccc12 [Example 35] | 0.031 µM | 0.092 µM | Kd (GST-tagged CDK2): 24 nM; IC50 (CDK2/cyclin A): 88 nM |
| O=C(O)c1cc(C(F)(F)F)ccc1NCCc1c[nH]c2cc(O)ccc12 [Example 95, 2-((2-(6-Hydroxy-1H-indol-3-yl)ethyl)amino)-5-(trifluoromethyl)benzoic acid] |  | 91 µM |  |
| O=C(O)c1cc(OC(F)(F)F)ccc1NCCc1c[nH]c2cc(Br)ccc12 [Example 63, 2-((2-(6-Bromo-1H-indol-3-yl)ethyl)amino)-5-(trifluoromethoxy)benzoic acid] |  | < 0.1 µM |  |
| CCCc1ccc(NCCc2c[nH]c3ccccc23)c(C(=O)O)c1 [Example 81, 2-((2-(1H-Indol-3-yl)ethyl)amino)-5-propylbenzoic acid] | 6.5 µM | 5.6 µM |  |
| FC(F)(F)c1ccc(NCCc2c[nH]c3cc(Br)ccc23)c(-c2nnn[nH]2)c1 [Example 37] |  | 0.63 µM |  |
| O=C(O)c1cc(OC(F)(F)F)ccc1NCCc1c[nH]c2cc(F)ccc12 [Example 48] |  | 0.18 µM |  |
| O=C(O)c1cc(C(F)(F)F)ccc1SCCc1c[nH]c2ccccc12 [Example 46] |  | 1 µM |  |
| CCSc1ccc(NCCc2c[nH]c3ccccc23)c(C(=O)O)c1 [Example 85, 2-((2-(1H-Indol-3-yl)ethyl)amino)-5-(ethylthio)benzoic acid] | 9.1 µM |  |  |
| O=C(O)c1cc(C(F)(F)F)ccc1NCCc1c[nH]c2ccc([N+](=O)[O-])cc12 [Example 28] |  | 0.66 µM |  |
| O=C(O)c1cc([N+](=O)[O-])ccc1NCCc1c[nH]c2cccc(F)c12 [Example 17] |  | 2.1 µM |  |
| O=C(O)c1cc(-c2ccccc2)ccc1NCCc1c[nH]c2ccccc12 [Example 79, 4-((2-(1H-Indol-3-yl)ethyl)amino)-[1,1′-biphenyl]-3-carboxylic acid] | > 100 µM | 11 µM |  |
| O=C(O)c1cc(SC(F)(F)F)ccc1NCCc1c(CO)[nH]c2cc(Br)ccc12 [Example 65, 2-((2-(6-Bromo-2-(hydroxymethyl)-1H-indol-3-yl)ethyl)amino)-5-((trifluoromethyl)thio)benzoic acid] |  | 0.34 µM |  |
| O=C(O)c1cc(C(F)(F)F)ccc1NCCc1c[nH]c2c(O)cccc12 [Example 31] |  | 3.4 µM |  |
| Cc1cc(NCCc2c[nH]c3ccccc23)c(C(=O)O)cc1[N+](=O)[O-] [Example 6] | 5.7 µM | 4.2 µM |  |
| CCc1ccc(NCCc2c[nH]c3ccccc23)c(C(=O)O)c1 [Example 77, 2-((2-(1H-Indol-3-yl)ethyl)amino)-5-ethylbenzoic acid] | 22 µM | 18 µM |  |
| O=C(O)c1cc([N+](=O)[O-])ccc1NCCc1c[nH]c2ccc(F)cc12 [Example 19] |  | 2.5 µM |  |
| O=C(O)c1cc([N+](=O)[O-])ccc1NCCc1c[nH]c2cc(OC(F)(F)F)ccc12 [Example 25] |  | 0.94 µM |  |
| CCOc1cc(NCCc2c[nH]c3cc(C#N)ccc23)c(C(=O)O)cc1OCC [Example 62, 2-((2-(6-Cyano-1H-indol-3-yl)ethyl)amino)-4,5-diethoxybenzoic acid] |  | 0.77 µM |  |
| O=Cc1ccc(NCCc2c[nH]c3ccccc23)c(C(=O)O)c1 [Example 91, 2-((2-(1H-Indol-3-yl)ethyl)amino)-5-formylbenzoic acid] |  | 36 µM |  |
| O=C(O)c1cc2c(cc1NCCc1c[nH]c3ccccc13)OCCO2 [Example 73, 7-((2-(1H-Indol-3-yl)ethyl)amino)-2,3-dihydrobenzo[b][1,4]dioxine-6-carboxylic acid] | 30 µM |  |  |
| O=C(O)c1c(NCCc2c[nH]c3ccccc23)cccc1[N+](=O)[O-] [Example 88, 2-((2-(1H-Indol-3-yl)ethyl)amino)-6-nitrobenzoic acid] | 79 µM | 94 µM |  |
| N#Cc1ccc2c(CCNc3ccc(SC(F)(F)F)cc3C(=O)O)c[nH]c2c1 [Example 67, 2-((2-(6-Cyano-1H-indol-3-yl)ethyl)amino)-5-((trifluoromethyl)thio)benzoic acid] |  | < 0.1 µM |  |
| O=C(O)c1cc(SC(F)(F)F)ccc1NCCc1c[nH]c2ccccc12 [Example 40] |  | 0.15 µM |  |
| CC(C)(C)c1ccc(NCCc2c[nH]c3ccccc23)c(C(=O)O)c1 [Example 80, 2-((2-(1H-Indol-3-yl)ethyl)amino)-5-(tert-butyl)benzoic acid] | > 100 µM | 21 µM |  |

| Structure (SMILES) | Kd (CDK2 [1]) | IC50 (CDK2 [2]) | other results |
| --- | --- | --- | --- |
| Nc1c([N+](=O)[O-])ccc(NCCc2c[nH]c3ccccc23)c1C(=O)O [Example 7] | 4.4 µM | 4.1 µM |  |
| O=C(O)c1cc(SC(F)(F)F)ccc1NCCc1c[nH]c2cc(Br)ccc12 [Example 66, 2-((2-(6-Bromo-1H-indol-3-yl)ethyl)amino)-5-((trifluoromethyl)thio)benzoic acid] |  | 0.17 µM |  |
| N#Cc1ccc2[nH]cc(CCNc3ccc(C(F)(F)F)cc3C(=O)O)c2c1 [Example 29] |  | 6.2 µM |  |
| COc1cc(NCCc2c[nH]c3ccccc23)c(C(=O)O)cc1Br [Example 69, 2-((2-(1H-Indol-3-yl)ethyl)amino)-5-bromo-4-methoxybenzoic acid] |  | 28 µM |  |
| Cc1c([N+](=O)[O-])ccc(NCCc2c[nH]c3ccccc23)c1C(=O)O [Example 68, 6-((2-(1H-Indol-3-yl)ethyl)amino)-2-methyl-3-nitrobenzoic] |  | 4.9 µM |  |
| O=C(O)c1c(O)cccc1NCCc1c[nH]c2ccccc12 [Example 8] | 5.9 µM | 20 µM |  |
| O=C(O)c1cc([N+](=O)[O-])ccc1NCCc1c[nH]c2c(F)cccc12 [Example 20] |  | 6 µM |  |
| O=C(O)c1c(NCCc2c[nH]c3ccccc23)cccc1C(F)(F)F [Example 89, 2-((2-(1H-Indol-3-yl)ethyl)amino)-6-(trifluoromethyl)benzoic acid] |  | 120 µM |  |
| Cc1[nH]c2c(Cl)c(Cl)ccc2c1CCNc1ccc(C(F)(F)F)cc1C(=O)O [Example 45] |  | 1.6 µM |  |
| O=C(O)c1cc(F)c(F)cc1NCCc1c[nH]c2ccccc12 [Example 41] |  | 2.4 µM |  |
| N#Cc1cccc(NCCc2c[nH]c3ccccc23)c1C(=O)O [Example 90, 2-((2-(1H-Indol-3-yl)ethyl)amino)-6-cyanobenzoic acid] |  | 37 µM |  |
| Cc1ccc(NCCc2c[nH]c3ccccc23)c(C(=O)O)c1 [Example 76, 2-((2-(1H-Indol-3-yl)ethyl)amino)-5-methylbenzoic acid] | 36 µM |  |  |
| Cc1[nH]c2cc(Cl)cc(Cl)c2c1CCNc1ccc(C(F)(F)F)cc1C(=O)O [Example 44] |  | 0.93 µM |  |
| O=C(O)c1cc([N+](=O)[O-])ccc1NCCc1c(C(=O)O)[nH]c2ccccc12 [Example 93, 3-(2-((2-Carboxy-4-nitrophenyl)amino)ethyl)-1H-indole-2-carboxylic acid] |  | 16 µM |  |
| O=C(O)c1c(NCCc2c[nH]c3ccccc23)ccc([N+](=O)[O-])c1O [Example 9] | 0.36 µM | 0.66 µM |  |
| Cc1[nH]c2cc(F)ccc2c1CC(C)Nc1ccc(C(F)(F)F)cc1C(=O)O (stereo not shown) [Example 47] |  | 0.17 µM |  |
| O=C(O)c1cc(SC(F)(F)F)ccc1NCCc1c(CO)[nH]c2ccccc12 [Example 64, 2-((2-(2-(Hydroxymethyl)-1H-indol-3-yl)ethyl)amino)-5-((trifluoromethyl)thio)benzoic acid] |  | 3.8 µM |  |
| O=C(O)c1cc(C(F)(F)F)ccc1NCCc1c[nH]c2cc(F)ccc12 [Example 34] | 0.21 µM | 0.17 µM |  |
| COc1ccc2c(CCNc3ccc([N+](=O)[O-])cc3C(=O)O)c[nH]c2c1 [Example 23] |  | 1.5 µM |  |
| O=C(O)c1cc2c(cc1NCCc1c[nH]c3ccccc13)CCCC2 [Example 42] |  | 6.8 µM |  |
| O=C(O)c1cc(C(F)(F)F)ccc1NCCc1c[nH]c2cccc(O)c12 [Example 94, 2-((2-(4-Hydroxy-1H-indol-3-yl)ethyl)amino)-5-(trifluoromethyl)benzoic acid] |  | 51 µM |  |
| FC(F)(F)c1ccc(NCCc2c[nH]c3ccccc23)c(-c2nnn[nH]2)c1 [Example 33] |  | 6.6 µM |  |
| Cc1cc(C(=O)O)c(NCCc2c[nH]c3ccccc23)cc1Cl [Example 70, 2-((2-(1H-Indol-3-yl)ethyl)amino)-4-chloro-5-methylbenzoic acid] | 6.3 µM | 11 µM |  |
| O=C(O)c1cc(C(F)(F)F)ccc1NCCc1c(CO)[nH]c2ccccc12 [Example 27] |  | 0.63 µM |  |
| O=C(O)c1cc2ccccc2cc1NCCc1c[nH]c2ccccc12 [Example 43] |  | 2.7 µM |  |
